Measured values: patent publication US7087375B1, “Method for determining the mechanism of HIV RT inhibitors” (priority 2000, dated 2006)
Several values for one entry are separate records, joined by “and”; a condition that tells them apart may be missing. Equal entries are not always repeated. Where two headings read alike, the source gives them in different places. Marks after values point to notes of the source that are not given here.

What was measured:
[1] = tested on: HXB2 site-directed mutant M41L, D67N, K70R, M184V, T215Y; format: cell-based; settings: virus M41L
[2] = tested on: HXB2 site-directed mutant M41L, T215Y; format: cell-based; settings: virus M41L
[3] = tested on: HXB2 site-directed mutant M41L, T69S-SS, T215Y; format: cell-based; settings: virus M41L
[4] = tested on: HXB2 site-directed mutant M41L, T69S-SG, T215Y; format: cell-based; settings: virus M41L
[5] = tested on: HXB2 site-directed mutant T69S-SS; format: cell-based; settings: virus T69S-SS
[6] = tested on: HXB2 site-directed mutant T69S-SG; format: cell-based; settings: virus T69S-SG
[7] = tested on: HXB2 site-directed mutant D67N, K70R; format: cell-based; settings: virus D67N
[8] = tested on: HXB2 site-directed mutant M41L, M184V, T215Y; format: cell-based; settings: virus M41L
[9] = tested on: HXB2 site-directed mutant T69S-AG; format: cell-based; settings: virus T69S-AG
[10] = tested on: HXB2 site-directed mutant M41L, T69S-AG, T215Y; format: cell-based; settings: virus M41L
wild type HXB2 virus = test: HIV drug susceptibility assay (recombinant virus, MT-4 cells)
Description: Phenotypic susceptibility of these viable recombinant viruses to nucleoside analogs was then determined. […] Fold resistance values were calculated by dividing the mean 50% inhibitory concentration (IC50) for a recombinant virus from a mutant clone by the mean IC50 for recombinant wild type virus (HXB2).

[11] = biological target: T1, HIV-1 RT mutant 41/67/70/184/210/211/214/215 (Human immunodeficiency virus type 1 group M subtype B, UniProt P04585, D654N/K657R/L797W/L801F/M628L/M771V/R798K/T802Y); format: biochemical; settings: 41/67/70/184/210/211/214/215 RT
T1 construct: The final RT products, in a heterodimeric form (p66/p51); made in house; host or cells: E. coli XL1-Blue (vector pKK233-2)

HIV-1 RT mutant 69S-AG = biological target: T2, HIV-1 RT mutant 69S-AG (Human immunodeficiency virus type 1 group M subtype B, UniProt P04585, INS655SA/T656G/T656S); format: biochemical; settings: 69S-AG RT
T2 construct: The final RT products, in a heterodimeric form (p66/p51); made in house; host or cells: E. coli XL1-Blue (vector pKK233-2)

HIV-1 RT mutant 69S-SS = biological target: T3, HIV-1 RT mutant 69S-SS (Human immunodeficiency virus type 1 group M subtype B, UniProt P04585, INS655SS/T656S); format: biochemical; settings: 69S-SS RT
T3 construct: The final RT products, in a heterodimeric form (p66/p51); made in house; host or cells: E. coli XL1-Blue (vector pKK233-2)

[12] = biological target: T4, HIV-1 RT mutant 41/67/70/215 (Human immunodeficiency virus type 1 group M subtype B, UniProt P04585, D654N/K657R/M628L/T802Y); format: biochemical; settings: 41/67/70/215 RT
T4 construct: The final RT products, in a heterodimeric form (p66/p51); made in house; host or cells: E. coli XL1-Blue (vector pKK233-2)

HIV-1 RT mutant 69S-SG = biological target: T5, HIV-1 RT mutant 69S-SG (Human immunodeficiency virus type 1 group M subtype B, UniProt P04585, INS655SS/T656G/T656S); format: biochemical; settings: 69S-SG RT
T5 construct: The final RT products, in a heterodimeric form (p66/p51); made in house; host or cells: E. coli XL1-Blue (vector pKK233-2)

[13] = biological target: T6, HIV-1 RT wild type (HXB2) (Human immunodeficiency virus type 1 group M subtype B, UniProt P04585); format: biochemical; settings: for Fold resistance in RT-assay relative to HXB2: wild type HXB2 RT (reference); for Ki / Ki/Km: wild type HXB2 RT
T6 construct: The final RT products, in a heterodimeric form (p66/p51); made in house; host or cells: E. coli XL1-Blue (vector pKK233-2)

[14] = biological target: T7, HIV-1 RT mutant 41/184/215 (Human immunodeficiency virus type 1 group M subtype B, UniProt P04585, M628L/M771V/T802Y); format: biochemical; settings: 41/184/215 RT
T7 construct: The final RT products, in a heterodimeric form (p66/p51); made in house; host or cells: E. coli XL1-Blue (vector pKK233-2)

[15] = biological target: T8, HIV-1 RT mutant 41/67/70/184/215 (Human immunodeficiency virus type 1 group M subtype B, UniProt P04585, D654N/K657R/M628L/M771V/T802Y); format: biochemical; settings: 41/67/70/184/215 RT
T8 construct: The final RT products, in a heterodimeric form (p66/p51); made in house; host or cells: E. coli XL1-Blue (vector pKK233-2)

HIV-1 RT mutant 41/215 = HIV-1 RT mutant 41/215 (Human immunodeficiency virus type 1 group M subtype B, UniProt P04585, M628L/T802Y); test: RT inhibition assay (Lenti RT, polyrA/oligo(dT), BrdUTP); format: biochemical; settings: 41/215 RT
[16] = biological target: T9, HIV-1 RT mutant 41/69S-SS/215 (Human immunodeficiency virus type 1 group M subtype B, UniProt P04585, INS655SS/M628L/T656S/T802Y); format: biochemical; settings: 41/69S-SS/215 RT
T9 construct: The final RT products, in a heterodimeric form (p66/p51); made in house; host or cells: E. coli XL1-Blue (vector pKK233-2)

[17] = no extra additions (without ATP)
[18] = nontreated pyrophosphatase ATP 3.2 mM (control), single experiment
[19] = pyrophosphatase treated ATP 3.2 mM, single experiment

Compound: Cc1cn([C@H]2C=C[C@@H](CO)O2)c(=O)[nH]c1=O [d4T, stavudine]
- Fold resistance in IC50 relative to HXB2 [1]: 3.7 fold and 3.7 +/− 1.0 fold
- Fold resistance in IC50 relative to HXB2 [2]: 2.6 fold
- Fold resistance in IC50 relative to HXB2 [3]: 7.1 fold
- Fold resistance in IC50 relative to HXB2 [4]: 4.0 fold
- Fold resistance in IC50 relative to HXB2 [5]: 4.4 fold
- Fold resistance in IC50 relative to HXB2 [6]: 4.4 fold and 4.4 +/− 1.1 fold
- Fold resistance in IC50 relative to HXB2 [7]: 5.1 fold
- Fold resistance in IC50 relative to HXB2 [8]: 2.2 fold
- Fold resistance in IC50 relative to HXB2 [9]: 6.9 fold and 6.9 +/− 2.7 fold
- Fold resistance in IC50 relative to HXB2 [10]: 3.1 fold
- IC50 (wild type HXB2 virus; Human immunodeficiency virus 1, HXB2, MT4, read-out: mean IC50 for the wild type control virus): 1200 nM
- Virus Assay fold resistance (wild type HXB2 virus; wild type HXB2 virus (reference)): 1.0 fold

Compound: AZT-TP
- Fold resistance in RT-assay relative to HXB2 ([11]; ATP 3.2 mM): 2.8 fold
- Ki ([11]; ATP 3.2 mM): 52 nM
- Ki/Km ([11]; ATP 3.2 mM): 0.09
- Fold resistance in RT-assay relative to HXB2 ([11]; without ATP): 0.3 fold
- Ki ([11]; without ATP): 1.3 nM
- Ki/Km ([11]; without ATP): 0.011
- Fold resistance in RT-assay relative to HXB2 (HIV-1 RT mutant 69S-AG; ATP 3.2 mM): 14.0 fold
- Ki (HIV-1 RT mutant 69S-AG; ATP 3.2 mM): 125 nM
- Ki/Km (HIV-1 RT mutant 69S-AG; ATP 3.2 mM): 0.45
- level of resistance in RT assay relative to wild type (HIV-1 RT mutant 69S-AG; GTP 0.5 mM): 1.2–1.3 fold
- level of resistance in RT assay relative to wild type (HIV-1 RT mutant 69S-AG; PPi 150 μM): 3.3
- Fold resistance in RT-assay relative to HXB2 (HIV-1 RT mutant 69S-AG; without ATP): 1.9 fold
- Ki (HIV-1 RT mutant 69S-AG; without ATP): 6.4 nM
- Ki/Km (HIV-1 RT mutant 69S-AG; without ATP): 0.064
- Fold resistance in RT-assay relative to HXB2 (HIV-1 RT mutant 69S-SS; ATP 3.2 mM): 3.0 fold
- Ki (HIV-1 RT mutant 69S-SS; ATP 3.2 mM): 21 nM
- Ki/Km (HIV-1 RT mutant 69S-SS; ATP 3.2 mM): 0.095
- Fold resistance in RT-assay relative to HXB2 (HIV-1 RT mutant 69S-SS; without ATP): 0.8 fold
- Ki (HIV-1 RT mutant 69S-SS; without ATP): 1.7 nM
- Ki/Km (HIV-1 RT mutant 69S-SS; without ATP): 0.026
- Fold resistance in RT-assay relative to HXB2 ([12]; ATP 3.2 mM): 16.6 fold and 16.6 (+/−0.3) fold
- Ki ([12]; ATP 3.2 mM): 39 nM
- Ki/Km ([12]; ATP 3.2 mM): 0.53
- Fold resistance in RT-assay relative to HXB2 ([12]; ATP 3.2 mM + PPi 150 μM): 12.6 fold and 12.6 (+/−3) fold
- Ki ([12]; ATP 3.2 mM + PPi 150 μM): 280 nM
- Ki/Km ([12]; ATP 3.2 mM + PPi 150 μM): 1.39
- Fold resistance in RT-assay relative to HXB2 ([12]; ATP 6.0 mM): 15.9 (+/−4) fold
- Ki ([12]; ATP 6.0 mM): 176 nM
- Ki/Km ([12]; ATP 6.0 mM): 0.78
- Ki ([12]; ATP […]): 6.4 nM
- Ki/Km ([12]; ATP […]): 0.1
- Fold resistance in RT-assay relative to HXB2 ([12]; GTP 0.5 mM): 1.2 (+/−0.03) fold
- Ki ([12]; GTP 0.5 mM): 4 nM
- Ki/Km ([12]; GTP 0.5 mM): 0.034
- Fold resistance in RT-assay relative to HXB2 ([12]; PPi 150 μM): 10.5 fold and 10.5 (+/−3) fold
- Ki ([12]; PPi 150 μM): 83 nM
- Ki/Km ([12]; PPi 150 μM): 0.92
- Fold resistance in RT-assay relative to HXB2 [12, 17]: 0.9 fold and 0.9 (+/−0.1) fold
- Ki/Km [12, 17]: 0.03
- Ki [12, 18]: 20 nM
- Ki/Km [12, 18]: 0.46*
- Ki [12, 19]: 16 nM
- Ki/Km [12, 19]: 0.42*
- Fold resistance in RT-assay relative to HXB2 (HIV-1 RT mutant 69S-SG; ATP 3.2 mM): 8.4 fold
- Ki (HIV-1 RT mutant 69S-SG; ATP 3.2 mM): 96 nM
- Ki/Km (HIV-1 RT mutant 69S-SG; ATP 3.2 mM): 0.27
- Fold resistance in RT-assay relative to HXB2 (HIV-1 RT mutant 69S-SG; without ATP): 1.1 fold
- Ki (HIV-1 RT mutant 69S-SG; without ATP): 3.8 nM
- Ki/Km (HIV-1 RT mutant 69S-SG; without ATP): 0.038
- Fold resistance in RT-assay relative to HXB2 ([13]; ATP 3.2 mM): 1.0 fold
- Fold resistance in RT-assay relative to HXB2 ([13]; without ATP): 1.0 fold
- Ki ([13]; ATP 3.2 mM): 10 nM
- Ki/Km ([13]; ATP 3.2 mM): 0.032
- Ki ([13]; ATP 3.2 mM + PPi 150 μM): 59 nM
- Ki/Km ([13]; ATP 3.2 mM + PPi 150 μM): 0.11
- Ki ([13]; ATP 6.0 mM): 40 nM
- Ki/Km ([13]; ATP 6.0 mM): 0.049
- Ki ([13]; ATP […]): 4.8 nM
- Ki/Km ([13]; ATP […]): 0.02
- Ki ([13]; GTP 0.5 mM): 9 nM
- Ki/Km ([13]; GTP 0.5 mM): 0.028
- Ki ([13]; PPi 150 μM): 26 nM
- Ki/Km ([13]; PPi 150 μM): 0.087
- Ki [13, 17]: 5.8 nM
- Ki/Km [13, 17]: 0.034
- Fold resistance in RT-assay relative to HXB2 ([14]; ATP 3.2 mM): 5.9 fold
- Ki/Km ([14]; ATP 3.2 mM): 0.19
- Fold resistance in RT-assay relative to HXB2 ([14]; without ATP): 1.3 fold
- Ki ([14]; without ATP): 2.2 nM
- Ki/Km ([14]; without ATP): 0.045
- Fold resistance in RT-assay relative to HXB2 ([15]; ATP 3.2 mM): 4.1 fold
- Ki ([15]; ATP 3.2 mM): 50 nM
- Ki/Km ([15]; ATP 3.2 mM): 0.13
- Fold resistance in RT-assay relative to HXB2 ([15]; without ATP): 0.3 fold
- Ki ([15]; without ATP): 0.6 nM
- Ki/Km ([15]; without ATP): 0.01
- Fold resistance in RT-assay relative to HXB2 (HIV-1 RT mutant 41/215; ATP 3.2 mM): 3 fold and 2.9 fold
- Ki (HIV-1 RT mutant 41/215; ATP 3.2 mM): 34 nM
- Ki/Km (HIV-1 RT mutant 41/215; ATP 3.2 mM): 0.094
- level of resistance in RT assay relative to wild type (HIV-1 RT mutant 41/215; GTP 0.5 mM): 1.2–1.3 fold
- level of resistance in RT assay relative to wild type (HIV-1 RT mutant 41/215; PPi 150 μM): 1.1 fold
- Fold resistance in RT-assay relative to HXB2 (HIV-1 RT mutant 41/215; without ATP): 0.8 fold
- Ki (HIV-1 RT mutant 41/215; without ATP): 3 nM
- Ki/Km (HIV-1 RT mutant 41/215; without ATP): 0.027
- Fold resistance in RT-assay relative to HXB2 ([16]; ATP 3.2 mM): 20 fold and 19.7 fold
- Ki ([16]; ATP 3.2 mM): 133 nM
- Ki/Km ([16]; ATP 3.2 mM): 0.63
- Fold resistance in RT-assay relative to HXB2 ([16]; without ATP): 0.9 fold
- Ki ([16]; without ATP): 1.4 nM
- Ki/Km ([16]; without ATP): 0.031
